Laboratory results: paper PMC6726392 (ACS chemical neuroscience, 2019)

What was measured:
[1] = biological target: T1, kappa opioid receptor (KOR); human KOR (Homo sapiens, UniProt P41145); test: […]GTPγS binding stimulation, membranes; format: biochemical
[2] = biological target: delta opioid receptor (DOR); rat DOR (Rattus norvegicus, UniProt P33533); test: [3H]diprenorphine competitive displacement, membranes; format: binding
[3] = biological target: T1, kappa opioid receptor (KOR); human KOR; test: as above; format: binding
[4] = biological target: mu opioid receptor (MOR); rat MOR (Rattus norvegicus, UniProt P33535); test: as above; format: binding

Cc1cc(O)cc(C)c1C[C@H](N)C(=O)N1CCc2ccc(Cc3ccccc3)cc2C1 [4c, 7-Bn Dmt-Tiq analogue 4c]
EC50 [1]: 33 nM
Ki [2]: 6.1 nM
Ki [3]: 3.9 nM
Ki [4]: 2.7 nM

Cc1cc(O)cc(C)c1C[C@H](N)C(=O)N1CCc2c(Cc3ccccc3)cccc2C1 [4a, 5-Bn Dmt-Tiq analogue 4a]
Ki [2]: 3.3 nM
Ki [3]: 112 nM
Ki [4]: 17 nM

Cc1cc(O)cc(C)c1C[C@H](N)C(=O)N1CCc2cc(Cc3ccccc3)ccc2C1 [4b, 6-Bn Dmt-Tiq analogue 4b]
Ki [2]: 4.3 nM
Ki [3]: 38 nM
Ki [4]: 9.9 nM

Cc1cc(O)cc(C)c1C[C@H](N)C(=O)N1CCc2cccc(Cc3ccccc3)c2C1 [4d, 8-Bn Dmt-Tiq analogue 4d]
EC50 [1]: 319 nM
Ki [2]: 185 nM
Ki [3]: 26 nM
Ki [4]: 4.1 nM
